Data on nine molecules can be found in PubChem BioAssay (NCI).

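Each compound was tested at five concentrations against cells in 96-well plates for 48 hours. GI50 is the concentration that inhibits growth by half. TGI: concentration producing complete growth inhibition.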

Test systems include MCF7 breast; DU-145 prostate; NCI-H226 lung; RXF 393 renal; ACHN renal; SW-620 colon; HCT-116 colon; SF-295 CNS; A498 renal; HS 578T breast.
What all share (test): growth of human tumour cells (NCI), 48 h

Consider `CC(C)(C)N/N=C(/Cc1nc2c3c(ccc2[nH]c1=O)C(=O)c1ccccc1C3=O)C(=O)NC1=C(Cl)C(=O)c2ccccc2C1=O`, for which the TGI with MCF7 breast is above 100 µM; with DU-145 prostate it was above 100 µM; in the assay with NCI-H226 lung, 88.8 µM; with RXF 393 renal it was above 100 µM; in the assay on ACHN renal it was above 100 µM; in the assay with SW-620 colon, above 100 µM. Besides, the TGI is above 100 µM with HCT-116 colon, above 100 µM in the assay on SF-295 CNS, above 100 µM in the assay on A498 renal and 79.8 µM with HS 578T breast.

For `CC(C)=C[C@@H]1C[C@H](C)[C@H]2CC[C@H](C)c3c(O)c(OC4OC(C)C(O)C(O)C4O)c(C)c1c32` (some centres undefined), the GI50 in the assay with MCF7 breast is 13.9 µM; with DU-145 prostate, 10.9 µM; with NCI-H226 lung it was 17.3 µM; with RXF 393 renal, 11 µM; in the assay on ACHN renal it was 14.1 µM; in the assay with SW-620 colon it was 4.66 µM. The GI50 with HCT-116 colon was 10.9 µM; in the assay with SF-295 CNS it was 15900 nM; in the assay on A498 renal, 12700 nM; with HS 578T breast, 11.6 µM. The TGI in the assay with MCF7 breast is 27.7 µM; in the assay with DU-145 prostate, 23.3 µM; in the assay with NCI-H226 lung it was 33.1 µM; in the assay on RXF 393 renal, 23.2 µM; with ACHN renal it was 27.1 µM; in the assay on SW-620 colon, 16.3 µM. Further, the TGI in the assay with HCT-116 colon worked out at 22.9 µM; in the assay with SF-295 CNS it was 30.9 µM; with A498 renal, 26.7 µM; with HS 578T breast, 27.5 µM.

Take `CNC(=O)CCN1CCN(CC/C=C2\c3ccccc3Sc3ccc(Cl)cc32)CC1`: the GI50 in the assay with MCF7 breast is 4.91 µM; in the assay with DU-145 prostate, 11.9 µM; with NCI-H226 lung, 19 µM; in the assay on RXF 393 renal it was 3.55 µM; in the assay with ACHN renal, 13.8 µM; with SW-620 colon, 9.18 µM. The GI50 is 5.76 µM in the assay on HCT-116 colon, 1840 nM in the assay on SF-295 CNS, 6890 nM in the assay with A498 renal and 3.67 µM in the assay with HS 578T breast. The TGI with MCF7 breast was found to be 18.9 µM; in the assay on DU-145 prostate, 26.4 µM; with NCI-H226 lung, 37.9 µM; in the assay on RXF 393 renal, 20.4 µM; in the assay on ACHN renal, 27.1 µM; with SW-620 colon, 23.6 µM. Besides, the TGI with HCT-116 colon worked out at 20.9 µM; in the assay on SF-295 CNS it was 6.47 µM; with A498 renal, 19.9 µM; in the assay on HS 578T breast, 20.5 µM.

`Clc1ccc(C=Nc2ccc(-c3nc4ccccc4[nH]3)cc2)cc1`: the GI50 in the assay with MCF7 breast, with DU-145 prostate, in the assay with NCI-H226 lung, with RXF 393 renal, in the assay with ACHN renal and with SW-620 colon was above 100 µM in each case. Moreover, the GI50 is above 100 µM with HCT-116 colon, above 100000 nM with SF-295 CNS, 17400 nM with A498 renal and 39 µM with HS 578T breast. Besides, the TGI in the assay on MCF7 breast, in the assay with DU-145 prostate, in the assay with NCI-H226 lung, in the assay on RXF 393 renal, in the assay with ACHN renal and in the assay with SW-620 colon was above 100 µM in each case. For the same molecule, the TGI in the assay with HCT-116 colon, in the assay on SF-295 CNS, in the assay on A498 renal and in the assay on HS 578T breast was above 100 µM in each case.

Take `Cc1cc(N2CCC(N3CCCC3)CC2)nc(/N=C(\N)Nc2ccc(Cl)c(Cl)c2)n1`: the GI50 with MCF7 breast was 1.29 µM; with DU-145 prostate it was 1.75 µM; in the assay on NCI-H226 lung, 1.79 µM; with RXF 393 renal, 1.62 µM; in the assay with ACHN renal, 1.71 µM; in the assay with SW-620 colon it was 1.57 µM. For the same molecule, the GI50 was 1.93 µM in the assay on HCT-116 colon, 1840 nM in the assay with SF-295 CNS, 1940 nM with A498 renal and 1.91 µM in the assay on HS 578T breast. Moreover, the TGI in the assay with MCF7 breast stood at 2.69 µM; in the assay on DU-145 prostate it was 3.44 µM; in the assay on NCI-H226 lung, 3.69 µM; in the assay on RXF 393 renal, 3.09 µM; with ACHN renal, 3.22 µM; in the assay with SW-620 colon, 3.24 µM. For the same molecule, the TGI in the assay with HCT-116 colon is 3.63 µM; with SF-295 CNS, 3.55 µM; in the assay with A498 renal, 3.94 µM; in the assay with HS 578T breast it was 5.06 µM.

In the case of `[O]=[Sn]([CH]1CCCCC1)[CH]1CCCCC1`, the GI50 is 0.0849 µM in the assay on MCF7 breast; 0.259 µM with DU-145 prostate; 0.229 µM with NCI-H226 lung; 0.0962 µM in the assay with RXF 393 renal; 0.309 µM in the assay with ACHN renal; 0.0934 µM in the assay with SW-620 colon. In addition, the GI50 in the assay on HCT-116 colon was 0.152 µM; in the assay on SF-295 CNS it was 319 nM; in the assay with A498 renal, 167 nM; with HS 578T breast, 0.266 µM. Also, the TGI in the assay on DU-145 prostate is 0.839 µM; with NCI-H226 lung, 0.657 µM; with RXF 393 renal it was 0.241 µM; in the assay with ACHN renal, 1.12 µM; with SW-620 colon it was 0.238 µM; in the assay with HCT-116 colon, 0.32 µM. The values for the TGI with SF-295 CNS, with A498 renal and in the assay on HS 578T breast were 1.35 µM, 0.451 µM and 1.52 µM, respectively.

In the case of `CC[C@H](C)[C@H](NC(=O)C12C3C4C1C1C2C3C41NC)C(=O)N(C)[C@H](C[C@@H](OC(C)=O)c1nc(C(=O)N[C@@H](Cc2ccccc2)C[C@H](C)C(=O)OC)cs1)C(C)C` (some centres undefined), the GI50 in the assay on MCF7 breast is 0.0552 µM; with DU-145 prostate, 0.446 µM; in the assay on NCI-H226 lung it was above 7.85 µM; with RXF 393 renal it was 0.413 µM; in the assay with ACHN renal it was 1.21 µM; in the assay with SW-620 colon, 0.459 µM. In addition, the GI50 with HCT-116 colon is 0.346 µM; with SF-295 CNS, 526 nM; in the assay on A498 renal, 296 nM; with HS 578T breast, 0.693 µM. In addition, the TGI with MCF7 breast, in the assay on DU-145 prostate, with NCI-H226 lung, in the assay on RXF 393 renal, in the assay with ACHN renal and in the assay on SW-620 colon was above 14.3 µM throughout. Moreover, the TGI with HCT-116 colon was above 14.3 µM; in the assay on SF-295 CNS it was above 9.29 µM; with A498 renal it was 4.53 µM; with HS 578T breast, above 11.9 µM.

As to `C=C1OC2OC(C)C(NC(=O)OCC(Cl)(Cl)Cl)C(OC(C)=O)C2O1` (centres undefined), the TGI in the assay with MCF7 breast, in the assay with DU-145 prostate, in the assay with NCI-H226 lung, with RXF 393 renal, in the assay with ACHN renal and with SW-620 colon was above 100 µM each time. The TGI in the assay with HCT-116 colon, in the assay with SF-295 CNS, in the assay on A498 renal and in the assay with HS 578T breast was above 100 µM in each case.

In the case of `COc1cc(-c2nc(-c3ccccc3)c(-c3ccccc3)[nH]2)cc(OC)c1O`, the GI50 in the assay on MCF7 breast was 13.2 µM; with DU-145 prostate, 17 µM; in the assay with NCI-H226 lung it was 21.2 µM; in the assay on RXF 393 renal, 14.7 µM; in the assay with ACHN renal it was 14.2 µM; in the assay on SW-620 colon, 16.6 µM. Further, the GI50 in the assay on HCT-116 colon is 14.4 µM; with SF-295 CNS, 17100 nM; with A498 renal, 76.2 nM; in the assay on HS 578T breast it was 19.4 µM. The TGI turned out to be 43.4 µM in the assay on MCF7 breast; 32.1 µM with DU-145 prostate; 50 µM in the assay with NCI-H226 lung; 31.2 µM with RXF 393 renal; 33.1 µM in the assay on ACHN renal; 33.1 µM with SW-620 colon. Also, the TGI in the assay on HCT-116 colon was found to be 27.7 µM; with SF-295 CNS it was 45.5 µM; in the assay on A498 renal it was 24.7 µM; in the assay on HS 578T breast, 52.9 µM.
